Test results taken from ChEMBL document CHEMBL1201862, “PubChem BioAssay data set” (2004).
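Tested at 5 concentrations; 48 h exposure; 96-well plates; endpoints linearly interpolated, else capped at highest concentration. Abbreviation: GI50, concentration required for 50% inhibition of growth.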 Calls of active or inactive are those of the source. Rule as the data show it: active = GI50 up to about 1.1 µM and inactive = higher. Where a SMILES comes first, the peptide text is derived from it. [ ]: non-standard residue; d: D form. The star is where a group is joined. Bn2Val = CC(C)[C@@H](C(=O)*)N(Cc1ccccc1)Cc1ccccc1; NH(3,4-diMeO-benzyl) = COc1ccc(CN*)cc1OC; NMeV = CN[C@H](C(=O)O)C(C)C

Assays:
Assay in all cases: growth of human tumour cells (NCI), 48 h
MOLT-4 = system: MOLT-4
NCI-H226 = system: NCI-H226
OVCAR-3 = system: OVCAR-3
RPMI-8226 = system: RPMI-8226
SN12C = system: SN12C
M14 = system: M14
NCI/ADR-RES = system: NCI/ADR-RES
OVCAR-5 = system: OVCAR-5
COLO 205 = system: COLO 205
SF-268 = system: SF-268
K562 = system: K562
IGROV-1 = system: IGROV-1
KM12 = system: KM12
A549 = system: A549
HOP-92 = system: HOP-92
UACC-257 = system: UACC-257
HOP-62 = system: HOP-62
SK-MEL-28 = system: SK-MEL-28
NCI-H23 = system: NCI-H23
CCRF-CEM = system: CCRF-CEM

Measured: GI50

N#C/C(=C\Nc1ccccn1)C(=O)c1ccco1
inactive: MOLT-4 39.6 µM | NCI-H226 > 100 µM | OVCAR-3 > 100 µM | RPMI-8226 > 100 µM | SN12C > 100 µM | M14 > 100 µM | NCI/ADR-RES > 100 µM | OVCAR-5 > 100 µM | COLO 205 > 100 µM | SF-268 > 100 µM | K562 > 100 µM | IGROV-1 > 100 µM | KM12 > 100 µM | A549 > 100 µM | HOP-92 > 100 µM | UACC-257 > 100 µM | HOP-62 > 100 µM | SK-MEL-28 > 100 µM | NCI-H23 > 100 µM

CN1c2ccccc2S(=O)(=O)n2c(COc3ccc(Cl)cc3)nnc21
inactive: MOLT-4 > 100 µM | NCI-H226 92.5 µM | OVCAR-3 > 100 µM | CCRF-CEM 75.7 µM | SN12C > 100 µM | M14 > 100 µM | NCI/ADR-RES > 100 µM | OVCAR-5 > 100 µM | COLO 205 > 100 µM | SF-268 55 µM | K562 > 100 µM | IGROV-1 > 100 µM | KM12 > 100 µM | A549 > 100 µM | HOP-92 28 µM | UACC-257 > 100 µM | HOP-62 21.7 µM | SK-MEL-28 > 100 µM | NCI-H23 > 100 µM

O=C1OCC2(CO1)CC1C=CC2C1 (stereo not given)
inactive: MOLT-4 > 100 µM | NCI-H226 > 100 µM | OVCAR-3 > 100 µM | RPMI-8226 > 100 µM | SN12C > 100 µM | M14 > 100 µM | NCI/ADR-RES > 100 µM | OVCAR-5 > 100 µM | COLO 205 > 100 µM | SF-268 > 100 µM | K562 > 100 µM | IGROV-1 > 100 µM | KM12 > 100 µM | A549 > 100 µM | HOP-92 > 100 µM | UACC-257 > 100 µM | HOP-62 > 100 µM | SK-MEL-28 > 100 µM | NCI-H23 > 100 µM

O=c1c2c3c(sc2nc(S)n1-c1ccccc1)CCCc1ccc([N+](=O)[O-])cc1-3
inactive: MOLT-4 21.3 µM | NCI-H226 > 100 µM | OVCAR-3 32.1 µM | RPMI-8226 22.6 µM | SN12C 37.7 µM | M14 > 100 µM | NCI/ADR-RES 25.8 µM | OVCAR-5 > 100 µM | COLO 205 > 100 µM | SF-268 36.1 µM | K562 11.7 µM | IGROV-1 14.2 µM | KM12 > 100 µM | A549 42.9 µM | HOP-92 20.6 µM | UACC-257 29.2 µM | HOP-62 35.1 µM | SK-MEL-28 > 100 µM | NCI-H23 30.5 µM

O=C(O)CCC(NC(=O)c1ccc(OCc2nc3cc(C(F)(F)F)ccc3nc2-c2ccccc2)cc1)C(=O)O (stereo not given)
inactive: MOLT-4 > 100 µM | NCI-H226 > 100 µM | OVCAR-3 > 100 µM | CCRF-CEM > 100 µM | SN12C > 100 µM | M14 > 100 µM | NCI/ADR-RES > 100 µM | OVCAR-5 > 100 µM | COLO 205 > 100 µM | SF-268 > 100 µM | K562 > 100 µM | IGROV-1 > 100 µM | KM12 > 100 µM | A549 > 100 µM | HOP-92 > 100 µM | UACC-257 > 100 µM | HOP-62 > 100 µM | SK-MEL-28 > 100 µM | NCI-H23 > 100 µM

O=C(O)C(Br)C(Br)c1ccccc1[N+](=O)[O-] (stereo not given)
inactive: NCI-H226 > 100 µM | OVCAR-3 46.9 µM | RPMI-8226 > 100 µM | SN12C > 100 µM | M14 > 100 µM | NCI/ADR-RES > 100 µM | OVCAR-5 > 100 µM | COLO 205 > 100 µM | SF-268 > 100 µM | K562 > 100 µM | IGROV-1 > 100 µM | KM12 > 100 µM | A549 > 100 µM | HOP-92 > 100 µM | UACC-257 > 100 µM | HOP-62 96.2 µM | SK-MEL-28 > 100 µM | NCI-H23 > 100 µM

CC12OC3(C(O)C1O)C(C(=O)O[C@H]3CO[Si](C)(C)C(C)(C)C)C2S(=O)(=O)c1ccccc1 (stereo not given in full)
inactive: MOLT-4 23.6 µM | NCI-H226 5.21 µM | OVCAR-3 40.6 µM | RPMI-8226 27.1 µM | SN12C > 100 µM | M14 51.2 µM | NCI/ADR-RES 11.9 µM | OVCAR-5 > 100 µM | SF-268 47.4 µM | K562 37.8 µM | IGROV-1 21 µM | KM12 33.3 µM | A549 45 µM | HOP-92 38.3 µM | UACC-257 25.8 µM | HOP-62 > 100 µM | SK-MEL-28 56 µM

COc1c(OC)c(O)c2c(=O)c(OC)c(-c3ccc4c(c3)OCO4)oc2c1O
inactive: MOLT-4 40.1 µM | NCI-H226 > 100 µM | OVCAR-3 > 100 µM | CCRF-CEM 55.5 µM | SN12C > 100 µM | M14 > 100 µM | NCI/ADR-RES > 100 µM | OVCAR-5 > 100 µM | COLO 205 > 100 µM | SF-268 > 100 µM | K562 85.3 µM | IGROV-1 > 100 µM | KM12 > 100 µM | A549 > 100 µM | HOP-92 1.39 µM | UACC-257 67 µM | HOP-62 > 100 µM | SK-MEL-28 > 100 µM | NCI-H23 > 100 µM

CCOC(=O)C(NC(=O)NC(C(=O)OCC)C(=O)OCC)C(=O)OCC
inactive: MOLT-4 > 100 µM | NCI-H226 > 100 µM | OVCAR-3 > 100 µM | RPMI-8226 > 100 µM | SN12C > 100 µM | M14 > 100 µM | NCI/ADR-RES > 100 µM | OVCAR-5 > 100 µM | SF-268 > 100 µM | K562 > 100 µM | IGROV-1 > 100 µM | A549 > 100 µM | HOP-92 > 100 µM | UACC-257 > 10 µM | HOP-62 > 100 µM | SK-MEL-28 > 100 µM | NCI-H23 > 100 µM

COc1ccc(CNC(=O)[C@@H]2CCCN2C(=O)[C@@H]2CCCN2C(=O)[C@H](C(C)C)N(C)C(=O)[C@@H](NC(=O)[C@H](C(C)C)N(Cc2ccccc2)Cc2ccccc2)C(C)C)cc1OC (Bn2Val-V[NMeV]PP-{NH(3,4-diMeO-benzyl)})
inactive: MOLT-4 4.39 µM | NCI-H226 17.3 µM | OVCAR-3 12 µM | CCRF-CEM 4.23 µM | SN12C 15 µM | M14 14.6 µM | NCI/ADR-RES 18.3 µM | OVCAR-5 18.5 µM | COLO 205 9.71 µM | SF-268 21.3 µM | K562 7.55 µM | IGROV-1 3.92 µM | KM12 21.4 µM | A549 11.7 µM | HOP-92 14.9 µM | UACC-257 11.3 µM | HOP-62 15.6 µM | SK-MEL-28 16.9 µM | NCI-H23 18.9 µM
